The structures appear in SMILES notation.

The melting point is the temperature, or range, at which the solid turns liquid. Molecule `COc1ccc(OCCCc2cn(-c3ccc(C(F)(F)F)cn3)nc2C(C)C)c(CC(=O)O)c1` [Example 206, [2-(3-{3-isopropyl-1-[5-(trifluoromethyl)-2-pyridyl]-1H-pyrazol-4-yl}propoxy)-5-methoxyphenyl]acetic acid] came in with a melting point of 143 to 144 °C. `COc1cccc(OCCCc2cn(-c3ccc(C(F)(F)F)cn3)nc2C(C)C)c1CC(=O)O` [Example 208, [2-(3-{3-isopropyl-1-[5-(trifluoromethyl)-2-pyridyl]-1H-pyrazol-4-yl}propoxy)-6-methoxyphenyl]acetic acid] gave a melting point of 183 to 184 °C. The molecule `CCCc1nn(-c2ccc(C(F)(F)F)cn2)cc1CCCOc1c(F)cccc1CC(=O)O` [Example 211, [3-fluoro-2-(3-{3-propyl-1-[5-(trifluoromethyl)-2-pyridyl]-1H-pyrazol-4-yl}propoxy)phenyl]acetic acid] registered a melting point of 105 to 106 °C.

As for `CCC(C)c1nn(-c2ccc(C(F)(F)F)cn2)cc1CCCOc1c(C)cccc1CC(=O)O` (centres unmarked) [Example 219, [3-methyl-2-(3-{3-(1-methylpropyl)-1-[5-(trifluoromethyl)-2-pyridyl]-1H-pyrazol-4-yl}propoxy)phenyl]acetic acid], the melting point fell in the range of 134 to 135 °C. The value for `CC(C)c1nn(-c2ccc(C(F)(F)F)cn2)cc1CCCOc1c(C#N)cccc1CC(=O)O` [Example 231, [3-cyano-2-(3-{3-isopropyl-1-[5-(trifluoromethyl)-2-pyridinyl]-1H-pyrazol-4-yl}propoxy)phenyl]acetic acid] was 144 to 145 °C. Molecule `CCCc1nn(-c2ccc(C(F)(F)F)cn2)cc1CCCOc1c(C#N)cccc1CC(=O)O` [Example 233, [3-cyano-2-(3-{3-propyl-1-[5-(trifluoromethyl)-2-pyridinyl]-1H-pyrazol-4-yl}propoxy)phenyl]acetic acid] yielded a melting point of 146 to 147 °C. Under `CCc1cccc(CC(=O)O)c1OCCCc1cn(-c2ccc(Cl)cn2)nc1C(C)C` [Example 243, (2-{3-[1-(5-chloro-2-pyridinyl)-3-isopropyl-1H-pyrazol-4-yl]propoxy}-3-ethylphenyl)acetic acid] stands 142 to 143 °C. Under `CCc1cccc(CC(=O)O)c1OCCCc1cn(-c2ncc(C(F)(F)F)cc2Cl)nc1C(C)C` [Example 249, [2-(3-{1-[3-chloro-5-(trifluoromethyl)-2-pyridinyl]-3-isopropyl-1H-pyrazol-4-yl}propoxy)-3-ethylphenyl]acetic acid] stands 93 to 95 °C. The value for `CCc1cccc(CC(=O)O)c1OCCCc1cn(-c2ncc(Cl)cc2Cl)nc1C(C)C` [Example 251, (2-{3-[1-(3,5-dichloro-2-pyridinyl)-3-isopropyl-1H-pyrazol-4-yl]propoxy}-3-ethylphenyl)acetic acid] was 93 to 95 °C; that for `CCCc1cn(CC(=O)O)nc1OCCCc1cn(-c2ccc(C(F)(F)F)cn2)nc1CCC` [Example 254, [4-propyl-3-(3-{3-propyl-1-[5-(trifluoromethyl)-2-pyridyl]-1H-pyrazol-4-yl}propoxy)-1H-pyrazol-1-yl]acetic acid] was 138 to 139 °C.

The molecule `CCCc1nn(-c2ccc(C(F)(F)F)cn2)cc1CCCOc1cc(CCC(=O)O)n(C2CCCCC2)n1` [Example 256, 3-[1-cyclohexyl-3-(3-{3-propyl-1-[5-(trifluoromethyl)-2-pyridyl]-1H-pyrazol-4-yl}propoxy)-1H-pyrazol-5-yl]propanoic acid] returned a melting point of 164 to 165 °C. Under `CCOc1nn(-c2ccc(C(F)(F)F)cn2)cc1CCCOc1cc(CCC(=O)O)n(C2CCCCC2)n1` [Example 257, 3-[1-cyclohexyl-3-(3-{3-ethoxy-1-[5-(trifluoromethyl)-2-pyridyl]-1H-pyrazol-4-yl}propoxy)-1H-pyrazol-5-yl]propanoic acid] stands 89 to 90 °C; under `O=C(O)CCc1cc(OCCCc2cn(-c3ccc(C(F)(F)F)cn3)nc2C2CCCCC2)nn1C1CCCCC1` [Example 261, 3-[1-cyclohexyl-3-(3-{3-cyclohexyl-1-[5-(trifluoromethyl)-2-pyridyl]-1H-pyrazol-4-yl}propoxy)-1H-pyrazol-5-yl]propanoic acid], 190 to 191 °C. The value for `CC(C)c1nn(-c2ccc(C(F)(F)F)cn2)cc1CCCOc1cc(CCC(=O)O)n(C2CCCCC2)n1` [Example 262, 3-[1-cyclohexyl-3-(3-{3-isopropyl-1-[5-(trifluoromethyl)-2-pyridyl]-1H-pyrazol-4-yl}propoxy)-1H-pyrazol-5-yl]propanoic acid] was 166 to 167 °C; that for `CC(C)c1nn(-c2ccc(C(F)(F)F)cn2)cc1CCCOc1cc(CCC(=O)O)n(C(C)C)n1` [Example 263, 3-[1-isopropyl-3-(3-{3-isopropyl-1-[5-(trifluoromethyl)-2-pyridyl]-1H-pyrazol-4-yl}propoxy)-1H-pyrazol-5-yl]propanoic acid] was 130 to 131 °C; that for `COc1cccc(CC(=O)O)c1OCCCc1cn(-c2ccc(NC(C)=O)cn2)nc1C(C)C` [Example 265, (2-{3-[1-(5-acetylamino-2-pyridyl)-3-isopropyl-1H-pyrazol-4-yl]propoxy}-3-methoxyphenyl)acetic acid] was 158 to 159 °C. The value for `CCC(=O)Nc1ccc(-n2cc(CCCOc3c(CC(=O)O)cccc3OC)c(C(C)C)n2)nc1` [Example 266, (3-methoxy-2-{3-[3-isopropyl-1-(5-propanoylamino-2-pyridyl)-1H-pyrazol-4-yl]propoxy}phenyl)acetic acid] was 147 to 148 °C. Molecule `CCCC(=O)Nc1ccc(-n2cc(CCCOc3c(CC(=O)O)cccc3OC)c(C(C)C)n2)nc1` [Example 267, (2-{3-[1-(5-butyrylamino-2-pyridyl)-3-isopropyl-1H-pyrazol-4-yl]propoxy}-3-methoxyphenyl)acetic acid] gave a melting point of 119 to 120 °C. Under `COc1cccc(CC(=O)O)c1OCCCc1cn(-c2ccc(NC(=O)C(C)C)cn2)nc1C(C)C` [Example 268, [3-methoxy-2-(3-{3-isopropyl-1-[5-(2-methylpropanoylamino)-2-pyridyl]-1H-pyrazol-4-yl}propoxy)phenyl]acetic acid] stands 122 to 123 °C; under `COc1cccc(CC(=O)O)c1OCCCc1cn(-c2ccc(NS(C)(=O)=O)cn2)nc1C(C)C` [Example 269, (3-methoxy-2-{3-[3-isopropyl-1-(5-methylsulfonylamino-2-pyridyl)-1H-pyrazol-4-yl]propoxy}phenyl)acetic acid], 176 to 177 °C; under `CCc1cnc(-n2cc(CCCOc3c(CC(=O)O)cccc3OC)c(C(C)C)n2)nc1` [Example 276, (2-{3-[1-(5-ethylpyrimidin-2-yl)-3-isopropyl-1H-pyrazol-4-yl]propoxy}-3-methoxyphenyl)acetic acid], 103 to 104 °C. As for `Cc1nn(-c2ccc(C(F)(F)F)cn2)cc1CCCOc1cc(CC(=O)O)n(C)n1` [Example 283, [1-methyl-3-(3-{3-methyl-1-[5-(trifluoromethyl)-2-pyridinyl]-1H-pyrazol-4-yl}propoxy)-1H-pyrazol-5-yl]acetic acid], the melting point is 143 to 144 °C. In turn, `CCOc1nn(-c2ccc(C(F)(F)F)cn2)cc1CCOc1cc(CC(=O)O)n(C)n1` [Example 284, [3-(2-{3-ethoxy-1-[5-(trifluoromethyl)-2-pyridinyl]-1H-pyrazol-4-yl}ethoxy)-1-methyl-1H-pyrazol-5-yl]acetic acid] showed a melting point of 156 to 158 °C. Under `CCOc1cc(OCCCc2cn(-c3cc(C(F)(F)F)ccn3)nc2OCC)ccc1CCC(=O)OC` [Example 285, methyl 3-[2-ethoxy-4-(3-{3-ethoxy-1-[4-(trifluoromethyl)-2-pyridinyl]-1H-pyrazol-4-yl}propoxy)phenyl]propanoate] stands 79 to 81 °C; under `CCOc1nn(-c2cc(C(F)(F)F)ccn2)cc1CCCOc1cccc(CC(=O)O)c1` [Example 286, [3-(3-{3-ethoxy-1-[4-(trifluoromethyl)-2-pyridinyl]-1H-pyrazol-4-yl}propoxy)phenyl]acetic acid], 128 to 130 °C.

As to `CCOc1nn(-c2cc(C(F)(F)F)ccn2)cc1CCCOc1ccc(CCC(=O)O)cc1OC` [Example 287, 3-[4-(3-{3-ethoxy-1-[4-(trifluoromethyl)-2-pyridinyl]-1H-pyrazol-4-yl}propoxy)-3-methoxyphenyl]propanoic acid], the melting point is 111 to 112 °C. The molecule `CCOc1nn(-c2cc(C(F)(F)F)ccn2)cc1CCCOc1ccccc1CC(=O)O` [Example 288, [2-(3-{3-ethoxy-1-[4-(trifluoromethyl)-2-pyridinyl]-1H-pyrazol-4-yl}propoxy)phenyl]acetic acid] returned a melting point of 121 to 122 °C. Under `CCOc1nn(-c2cc(C(F)(F)F)ccn2)cc1CCCOc1cccc(OC(C)(C)C(=O)O)c1` [Example 289, 2-[3-(3-{3-ethoxy-1-[4-(trifluoromethyl)-2-pyridinyl]-1H-pyrazol-4-yl}propoxy)phenoxy]-2-methylpropanoic acid] stands 98 to 99 °C; under `CCCc1nn(-c2ccc(C(F)(F)F)cn2)cc1CCCCOc1c(CC(=O)O)cccc1OC` [Example 295, [3-methoxy-2-(4-{3-propyl-1-[5-(trifluoromethyl)-2-pyridinyl]-1H-pyrazol-4-yl}butoxy)phenyl]acetic acid], 111 to 112 °C.

In the case of `CCCc1nn(-c2ccc(C(F)(F)F)cc2)cc1CCCOc1c(CC(=O)O)cccc1OC` [Example 297, [3-methoxy-2-(3-{3-propyl-1-[4-(trifluoromethyl)phenyl]-1H-pyrazol-4-yl}propoxy)phenyl]acetic acid], the melting point lay within 95 to 96 °C. Molecule `CCOc1cc(OCCCc2cn(-c3cc(C(F)(F)F)ccn3)nc2OCC)ccc1CCC(=O)O` [Example 298, 3-[2-ethoxy-4-(3-{3-ethoxy-1-[4-(trifluoromethyl)-2-pyridinyl]-1H-pyrazol-4-yl}propoxy)phenyl]propanoic acid] gave a melting point of 119 to 120 °C. Under `CCOc1cccc(CC(=O)O)c1OCCCc1cn(-c2ccc(C(F)(F)F)cn2)nc1OCC` [Example 301, [3-ethoxy-2-(3-{3-ethoxy-1-[5-(trifluoromethyl)-2-pyridinyl]-1H-pyrazol-4-yl}propoxy)phenyl]acetic acid] stands 114 to 115 °C.

The values above are taken from US20060148858A1, “1, 2-Azole derivatives with hypoglycemic and hypolipidemic activity” (priority 2002, published 2006).
